According to US8299048B2, “Hexahydrocyclopentyl[f]indazole sulfonamides and derivatives thereof as selective glucocorticoid receptor modulators” (Merck Sharp & Dohme Corp., priority 2008, dated 2012):

biological target: T1, glucocorticoid receptor (Homo sapiens, UniProt P04150); test: Ligand binding assay (GR BIND)
T1 construct: endogenous in cells
T1 sequence (P04150 1-777): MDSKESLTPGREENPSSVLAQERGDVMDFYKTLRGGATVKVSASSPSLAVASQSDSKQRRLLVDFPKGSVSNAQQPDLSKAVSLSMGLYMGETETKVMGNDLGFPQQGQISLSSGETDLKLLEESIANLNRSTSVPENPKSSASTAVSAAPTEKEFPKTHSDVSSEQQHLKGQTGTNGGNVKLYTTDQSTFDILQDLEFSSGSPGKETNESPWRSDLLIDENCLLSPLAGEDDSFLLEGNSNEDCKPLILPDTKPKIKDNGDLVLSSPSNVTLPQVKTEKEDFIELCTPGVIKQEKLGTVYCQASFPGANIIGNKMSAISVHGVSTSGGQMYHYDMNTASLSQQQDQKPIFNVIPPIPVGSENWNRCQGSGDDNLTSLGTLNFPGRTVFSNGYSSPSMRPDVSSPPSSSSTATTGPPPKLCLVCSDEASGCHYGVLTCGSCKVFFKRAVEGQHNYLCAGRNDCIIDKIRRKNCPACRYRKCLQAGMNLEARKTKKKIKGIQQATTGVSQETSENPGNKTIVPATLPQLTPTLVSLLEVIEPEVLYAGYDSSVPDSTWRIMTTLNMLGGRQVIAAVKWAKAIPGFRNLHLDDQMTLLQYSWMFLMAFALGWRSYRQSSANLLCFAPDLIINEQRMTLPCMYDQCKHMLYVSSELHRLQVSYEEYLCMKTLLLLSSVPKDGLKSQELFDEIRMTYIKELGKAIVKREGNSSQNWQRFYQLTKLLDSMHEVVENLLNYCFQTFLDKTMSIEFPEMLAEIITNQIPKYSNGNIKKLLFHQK
In short: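 Cytosol from freeze–thawed cells in TEGM (pH 7.2, 10 mM molybdate) was incubated overnight at 4 °C with compound and [3H]-dexamethasone trace (added as 6 nM solution), 2% EtOH final. Bound ligand was captured on hydroxylapatite, filtered, washed and scintillation counted. Values were calculated with dexamethasone as reference.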

Row | SMILES | Ki [nM]
1 | C[C@]12Cc3cnn(-c4ccc(F)cc4)c3C=C1CC[C@@H]2CN(CCO)S(=O)(=O)c1ccc(F)c(F)c1 [Example 59] | 2.6
2 | CC([C@H]1CCC2=Cc3c(cnn3-c3ccc(F)cc3)C[C@@]21C)N(CCc1ccccn1)S(=O)(=O)Cc1cccnc1 (stereo partly drawn) [Example 197, N-{1-[(4αR)-1-(4-fluorophenyl)-4α-methyl-1,4,4α,5,6,7-hexahydrocyclopenta[f]indazol-5-yl]ethyl}-1-pyridin-3-yl-N-(2-pyridin-2-ylethyl)methanesulfonamide] | 4.4
3 | C[C@]12Cc3cnn(-c4ccc(F)cc4)c3C=C1CC[C@@H]2CN(CC#N)S(=O)(=O)c1cc(OCC(F)(F)F)ccc1OCC(F)(F)F [Example 41, N-(cyanomethyl)-N-{[(4αR,5S)-1-(4-fluorophenyl)-4α-methyl-1,4,4α,5,6,7-hexahydrocyclopenta[f]indazol-5-yl]methyl}-2,5-bis(2,2,2-trifluoroethoxy)benzenesulfonamide] | 5.9
4 | Cc1cc(S(=O)(=O)N(CC#N)C[C@H]2CCC3=Cc4c(cnn4-c4ccc(F)cc4)C[C@@]32C)c(C)cc1Cl [Example 29, 4-chloro-N-(cyanomethyl)-N-{[(4αR,5S)-1-(4-fluorophenyl)-4α-methyl-1,4,4α,5,6,7-hexahydrocyclopenta[f]indazol-5-yl]methyl}-2,5-dimethylbenzenesulfonamide] | 8.4
5 | Cc1oncc1S(=O)(=O)N(CC#N)C[C@H]1CCC2=Cc3c(cnn3-c3ccc(F)cc3)C[C@@]21C [Example 23, N-(cyanomethyl)-N-{[(4αR,5S)-1-(4-fluorophenyl)-4α-methyl-1,4,4α,5,6,7-hexahydrocyclopenta[f]indazol-5-yl]methyl}-5-methylisoxazole-4-sulfonamide] | 4.9
6 | C[C@@H](O)CN(C[C@H]1CCC2=Cc3c(cnn3-c3ccc(F)cc3)C[C@@]21C)S(=O)(=O)Cc1ccccc1C(=O)O [Example 182, 2-[({{[(4αR,5S)-1-(4-fluorophenyl)-4α-methyl-1,4,4α,5,6,7-hexahydrocyclopenta[f]indazol-5-yl]methyl}[(2R)-2-hydroxypropyl]amino}sulfonyl)methyl]benzoic acid] | 93.9
7 | C[C@]12Cc3cnn(-c4ccc(F)cc4)c3C=C1CC[C@@H]2CN(CC#N)S(=O)(=O)Cc1cccc(C(F)(F)F)c1 [Example 30, N-(cyanomethyl)-N-{[(4αR,5S)-1-(4-fluorophenyl}-4α-methyl-1,4,4α,5,6,7-hexahydrocyclopenta[f]indazol-5-yl]methyl}-1-[3-(trifluoromethyl)phenyl]methanesulfonamide] | 7.6
8 | C[C@]12Cc3cnn(-c4ccc(F)cc4)c3C=C1CC[C@@H]2CN(CC1CC1)S(=O)(=O)Cc1ccccc1 [Example 21, N-(cyclopropylmethyl)-N-{[(4αR,5S)-1-(4-fluorophenyl)-4α-methyl-1,4,4α,5,6,7-hexahydrocyclopenta[f]indazol-5-yl]methyl}-1-phenylmethanesulfonamide] | 3
9 | C[C@]12Cc3cnn(-c4ccc(F)cc4)c3C=C1CC[C@@H]2CN(CC#N)S(=O)(=O)c1ccccc1C(F)(F)F [Example 54, N-(cyanomethyl)-N-{[(4αR,5S)-1-(4-fluorophenyl)-4α-methyl-1,4,4α,5,6,7-hexahydrocyclopenta[f]indazol-5-yl]methyl}-2-(trifluoromethyl)benzenesulfonamide] | 8.5

These reach a lower Ki. Values come first.

Row | Ki [nM] | SMILES
10 | 1.8 | Cc1ccccc1S(=O)(=O)N(CC#N)C[C@H]1CCC2=Cc3c(cnn3-c3ccc(F)cc3)C[C@@]21C [Example 49, N-(cyanomethyl)-N-{[(4αR,5S)-1-(4-fluorophenyl)-4α-methyl-1,4,4α,5,6,7-hexahydrocyclopenta[f]indazol-5-yl]methyl}-2-methylbenzenesulfonamide]
11 | 0.9 | C[C@]12Cc3cnn(-c4ccc(F)cc4)c3C=C1CC[C@@H]2CN(Cc1ccccc1F)S(=O)(=O)c1cccc(C(N)=O)c1 [Example 192, 3-[((2-fluorobenzyl){[(4αR,5S)-1-(4-fluorophenyl)-4α-methyl-1,4,4α,5,6,7-hexahydrocyclopenta[f]indazol-5-yl]methyl}amino)sulfonyl]benzamide]
12 | 1.8 | C[C@]12Cc3cnn(-c4ccc(F)cc4)c3C=C1CC[C@@H]2CN(CC1CC1)S(=O)(=O)c1ccc(F)c(Cl)c1 [Example 15, 3-chloro-N-(cyclopropylmethyl)-4-fluoro-N-{[(4αR,5S)-1-(4-fluorophenyl)-4α-methyl-1,4,4α,5,6,7-hexahydrocyclopenta[f]indazol-5-yl]methyl}benzenesulfonamide]
13 | 1.3 | COCCN(C[C@H]1CCC2=Cc3c(cnn3-c3ccc(F)cc3)C[C@@]21C)S(=O)(=O)c1c(C)noc1C [Example 173, N-{[(4αR,5S)-1-(4-fluorophenyl)-4α-methyl-1,4,4α,5,6,7-hexahydrocyclopenta[f]indazol-5-yl]methyl}-N-(2-methoxyethyl)-3,5-dimethylisoxazole-4-sulfonamide]
14 | 2.5 | C[C@]12Cc3cnn(-c4ccc(F)cc4)c3C=C1CC[C@@H]2CN(CC#N)S(=O)(=O)c1cccc(C#N)c1 [Example 36, 3-cyano-N-(cyanomethyl)-N-{[(4αR,5S)-1-(4-fluorophenyl)-4α-methyl-1,4,4α,5,6,7-hexahydrocyclopenta[f]indazol-5-yl]methyl}benzenesulfonamide]
15 | 1 | C[C@]12Cc3cnn(-c4ccc(F)cc4)c3C=C1CC[C@@H]2CN(CCCc1ccccc1)S(=O)(=O)CC(F)(F)F [Example 193, 2,2,2-trifluoro-N-{[(4αR,5S)-1-(4-fluorophenyl)-4α-methyl-1,4,4α,5,6,7-hexahydrocyclopenta[f]indazol-5-yl]methyl}-N-(3-phenylpropyl)ethanesulfonamide]
16 | 1.6 | CNC(=O)Nc1ccc(S(=O)(=O)N(CC2CC2)C[C@H]2CCC3=Cc4c(cnn4-c4ccc(F)cc4)C[C@@]32C)c(Cl)c1 [Example 14, 2-chloro-N-(cyclopropylmethyl)-N-{[(4αR,5S)-1-(4-fluorophenyl)-4α-methyl-1,4,4α,5,6,7-hexahydrocyclopenta[f]indazol-5-yl]methyl}-4-{[(methylamino)carbonyl]amino}-benzenesulfonamide]
17 | 1.5 | Cc1noc(C)c1S(=O)(=O)N(CCCc1ccccc1)C[C@H]1CCC2=Cc3c(cnn3-c3ccc(F)cc3)C[C@@]21C [Example 194, N-{[(4αR,5S)-1-(4-fluorophenyl)-4α-methyl-1,4,4α,5,6,7-hexahydrocyclopenta[f]indazol-5-yl]methyl}-3,5-dimethyl-N-(3-phenylpropyl)isoxazole-4-sulfonamide]
18 | 1.2 | COC(=O)c1ccccc1CS(=O)(=O)N(CCc1ccccc1F)C[C@H]1CCC2=Cc3c(cnn3-c3ccc(F)cc3)C[C@@]21C [Example 188, methyl 2-{[([2-(2-fluorophenyl)ethyl]{[(4αR,5S)-1-(4-fluorophenyl)-4α-methyl-1,4,4α,5,6,7-hexahydrocyclopenta[f]indazol-5-yl]methyl}amino)sulfonyl]methyl}benzoate]
19 | 1.2 | CCN(C[C@H]1CCC2=Cc3c(cnn3-c3ccc(F)cc3)C[C@@]21C)S(=O)(=O)c1c(C)noc1C [Example 178, N-ethyl-N-{[(4αR,5S)-1-(4-fluorophenyl)-4α-methyl-1,4,4α,5,6,7-hexahydrocyclopenta[f]indazol-5-yl]methyl}-3,5-dimethylisoxazole-4-sulfonamide]
